Reference: the NIST ThermoML archive (doi:10.1021/acs.jced.7b00722)
Numbers after ± are expanded uncertainties.

Legend:
[1] = wn = mass fraction of the nth substance listed; conditions: 298.15 K, 100 kPa, Liquid; for viscosity: Falling or rolling sphere viscometry; for mass density: Vibrating tube method
[2] = refractive index (Na D-line) (dimensionless); wn = mass fraction of the nth substance listed; conditions: 298.15 K, 100 kPa, Liquid, Standard Abbe refractometry
[3] = 298.15 K; 100 kPa; Liquid; Falling or rolling sphere viscometry
[4] = refractive index (Na D-line) (dimensionless); conditions: 298.15 K; 100 kPa; Liquid; Standard Abbe refractometry

O [water] + O=C([O-])[C@H](O)[C@@H](O)C(=O)[O-].[K+].[K+]
viscosity ([1]; w2 = 0): 0.894 ± 0.011 mPa·s | refractive index ([2]; w2 = 0): 1.3327 ± 0.0004

O [water]
viscosity [3]: 0.894 ± 0.011 mPa·s | refractive index [4]: 1.3327 ± 0.0004

O=C([O-])[C@H](O)[C@@H](O)C(=O)[O-].[K+].[K+] [dipotassium L-tartrate] + O
viscosity ([1]; w1 = 0.02): 0.929 ± 0.037 mPa·s | viscosity ([1]; w1 = 0.04): 0.965 ± 0.037 mPa·s | viscosity ([1]; w1 = 0.06): 0.998 ± 0.039 mPa·s | viscosity ([1]; w1 = 0.08): 1.04 ± 0.048 mPa·s | viscosity ([1]; w1 = 0.1): 1.09 ± 0.045 mPa·s | viscosity ([1]; w1 = 0.15): 1.191 ± 0.047 mPa·s | viscosity ([1]; w1 = 0.2): 1.313 ± 0.056 mPa·s | viscosity ([1]; w1 = 0.25): 1.46 ± 0.058 mPa·s | viscosity ([1]; w1 = 0.3): 1.59 ± 0.064 mPa·s | viscosity ([1]; w1 = 0.4): 1.91 ± 0.068 mPa·s | mass density ([1]; w1 = 0.02): 1006 ± 11 kg/m3 | mass density ([1]; w1 = 0.04): 1019.6 ± 14 kg/m3 | mass density ([1]; w1 = 0.06): 1033.3 ± 14 kg/m3 | mass density ([1]; w1 = 0.08): 1046.9 ± 14 kg/m3 | mass density ([1]; w1 = 0.1): 1060.6 ± 14 kg/m3 | mass density ([1]; w1 = 0.15): 1094.7 ± 14 kg/m3 | mass density ([1]; w1 = 0.2): 1128.9 ± 14 kg/m3 | mass density ([1]; w1 = 0.25): 1163 ± 14 kg/m3 | mass density ([1]; w1 = 0.3): 1197.1 ± 14 kg/m3 | mass density ([1]; w1 = 0.4): 1265.4 ± 14 kg/m3 | refractive index ([2]; w1 = 0.02): 1.3345 ± 0.0024 | refractive index ([2]; w1 = 0.04): 1.3374 ± 0.0029 | refractive index ([2]; w1 = 0.06): 1.3403 ± 0.0029 | refractive index ([2]; w1 = 0.08): 1.3432 ± 0.0029 | refractive index ([2]; w1 = 0.1): 1.3461 ± 0.0029 | refractive index ([2]; w1 = 0.15): 1.3533 ± 0.0029 | refractive index ([2]; w1 = 0.2): 1.3606 ± 0.0029 | refractive index ([2]; w1 = 0.25): 1.3678 ± 0.0029 | refractive index ([2]; w1 = 0.3): 1.375 ± 0.0029 | refractive index ([2]; w1 = 0.4): 1.3895 ± 0.0029
